These results are taken from ChEMBL document CHEMBL5528047, “A Potent SOS1 PROTAC Degrader with Synergistic Efficacy in Combination with KRASG12C Inhibitor” (J Med Chem, 2024).

Each structure is given as a SMILES string. The source made the active and inactive calls. The calls are words filed in the database; no cut-off is given here.

For assay [1], the system named is MIA PaCa-2. In words: Induction of apoptosis in human MIA PaCa-2 cells assessed as increase in cleaved PARP-1 level incubated for 24 hrs in presence of 4-((S)-4-acryloyl-2-methylpiperazin-1-yl)-6-fluoro-7-(2-fluoro-6-hydroxyphenyl)-1-(2-isopropyl-4-methylpyridin-3-yl)pyrido[2,3-d]pyrimidin-2(1H)-one by Western blotting assay. Format: functional, cell-based. (In general: Immunoblotting shows a protein as a band on a membrane.)

Assay [2] has as its system MIA PaCa-2. In words: Antiproliferative activity against human MIA PaCa-2 cells incubated for 72 hrs by CCK8 assay. Format: functional, cell-based. The note with it: MIA PaCa-2, 72 h. In general terms: Tetrazolium dyes change colour on reduction, which living cells bring about.
The subject of assay [3] is K562. In words: Antiproliferative activity against human K562 cells incubated for 72 hrs by CCK8 assay. Format: functional, cell-based. The following applies: K562, 72 h.
In assay [4] the test system is K562. In words: Effect on total MEK level in human K562 cells at 0.3 to 3 uM incubated for 24 hrs by Western blotting analysis. In kind it is functional, cell-based. The following applies: dose 0.3-3 µM.
Assay [5] relates to NCI-H358. In words: Inhibition of ERK phosphorylation in human NCI-H358 cells at 1 uM measured after 24 to 72 hrs in presence of AMG510 by Western blotting analysis. In kind it is cell-based. The following applies: time 24-72 hrs.
Assay [6] concerns NCI-H358. The assay can be described thus: Antitumor activity against human NCI-H358 cells xenografted in BALB/c mouse assessed as tumor growth inhibition at 30 mg/kg, ip administered once daily for 28 days in presence of 10 mg/kg 4-((S)-4-acryloyl-2-methylpiperazin-1-yl)-6-fluoro-7-(2-fluoro-6-hydroxyphenyl)-1-(2-isopropyl-4-methylpyridin-3-yl)pyrido[2,3-d]pyrimidin-2(1H)-one. In kind it is functional. The note with it: NCI-H358, 672 h, time 28 day, read-out: TGI.

Assay [7] deals with T1, von Hippel-Lindau disease tumor suppressor/Son of sevenless homolog 1 (Homo sapiens, UniProt Q07889+P40337). In words: Protac activity at VHL/SOS1 in human NCI-H358 cells assessed as maximum SOS1 degradation at 0.003 to 10 uM incubated for 24 hrs by Western blotting analysis. In kind it is cell-based. The note with it: dose 0.003-10 µM.
Assay [8] addresses T1, von Hippel-Lindau disease tumor suppressor/Son of sevenless homolog 1. The assay can be described thus: Protac activity at VHL/SOS1 in human MIA PaCa-2 cells assessed as SOS1 degradation at 1 uM preincubated with MLN4924 for 2 hrs followed by compound addition and measured after 3 hrs by Western blotting analysis. In kind it is cell-based.
For assay [9] the target is unchanged. The assay can be described thus: Protac activity at VHL/SOS1 in human K562 cells assessed as SOS1 degradation at 1 uM preincubated with MG132 for 2 hrs followed by compound addition and measured after 2 hrs by Western blotting analysis. Format: cell-based.
The test system of assay [10] is MIA PaCa-2. In words: Antiproliferative activity against human MIA PaCa-2 cells incubated for 6 days by CCK8 assay. Format: functional, cell-based. The note with it: MIA PaCa-2, 144 h.
The target of assay [11] is T1, von Hippel-Lindau disease tumor suppressor/Son of sevenless homolog 1. In words: Protac activity at VHL/SOS1 in human K562 cells assessed as SOS1 degradation at 1 uM by Western blotting analysis relative to control. In kind it is cell-based.
Assay [12] shares this target. The assay can be described thus: Protac activity at VHL/SOS1 in human K562 cells assessed as SOS1 degradation at 1 uM preincubated with MLN4924 for 2 hrs followed by compound addition and measured after 2 hrs by Western blotting analysis. Format: cell-based.
Assay [13] has the same target. The assay can be described thus: Protac activity at VHL/SOS1 in human PANC-1 cells assessed as SOS1 degradation at 1 uM by Western blotting analysis relative to control. Format: cell-based.
Assay [14] relates to MIA PaCa-2. In words: Inhibition of ERK phosphorylation in human MIA PaCa-2 cells at 1 uM measured after 24 to 72 hrs in presence of AMG510 by Western blotting analysis. In kind it is cell-based. The following applies: time 24-72 hrs.
Assay [15] deals with T1, von Hippel-Lindau disease tumor suppressor/Son of sevenless homolog 1. The assay can be described thus: Protac activity at VHL/SOS1 in human MIA PaCa-2 cells assessed as SOS1 degradation at 1 uM preincubated with MG132 for 2 hrs followed by compound addition and measured after 3 hrs by Western blotting analysis. In kind it is cell-based.

T1 sequence (P40337 whole entry, looked up): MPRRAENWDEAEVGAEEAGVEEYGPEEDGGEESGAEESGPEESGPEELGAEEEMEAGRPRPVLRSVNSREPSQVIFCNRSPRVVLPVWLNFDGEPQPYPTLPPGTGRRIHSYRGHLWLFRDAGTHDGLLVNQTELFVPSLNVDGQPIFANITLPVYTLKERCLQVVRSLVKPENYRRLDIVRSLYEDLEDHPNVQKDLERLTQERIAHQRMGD
T1 sequence (Q07889 whole entry, looked up): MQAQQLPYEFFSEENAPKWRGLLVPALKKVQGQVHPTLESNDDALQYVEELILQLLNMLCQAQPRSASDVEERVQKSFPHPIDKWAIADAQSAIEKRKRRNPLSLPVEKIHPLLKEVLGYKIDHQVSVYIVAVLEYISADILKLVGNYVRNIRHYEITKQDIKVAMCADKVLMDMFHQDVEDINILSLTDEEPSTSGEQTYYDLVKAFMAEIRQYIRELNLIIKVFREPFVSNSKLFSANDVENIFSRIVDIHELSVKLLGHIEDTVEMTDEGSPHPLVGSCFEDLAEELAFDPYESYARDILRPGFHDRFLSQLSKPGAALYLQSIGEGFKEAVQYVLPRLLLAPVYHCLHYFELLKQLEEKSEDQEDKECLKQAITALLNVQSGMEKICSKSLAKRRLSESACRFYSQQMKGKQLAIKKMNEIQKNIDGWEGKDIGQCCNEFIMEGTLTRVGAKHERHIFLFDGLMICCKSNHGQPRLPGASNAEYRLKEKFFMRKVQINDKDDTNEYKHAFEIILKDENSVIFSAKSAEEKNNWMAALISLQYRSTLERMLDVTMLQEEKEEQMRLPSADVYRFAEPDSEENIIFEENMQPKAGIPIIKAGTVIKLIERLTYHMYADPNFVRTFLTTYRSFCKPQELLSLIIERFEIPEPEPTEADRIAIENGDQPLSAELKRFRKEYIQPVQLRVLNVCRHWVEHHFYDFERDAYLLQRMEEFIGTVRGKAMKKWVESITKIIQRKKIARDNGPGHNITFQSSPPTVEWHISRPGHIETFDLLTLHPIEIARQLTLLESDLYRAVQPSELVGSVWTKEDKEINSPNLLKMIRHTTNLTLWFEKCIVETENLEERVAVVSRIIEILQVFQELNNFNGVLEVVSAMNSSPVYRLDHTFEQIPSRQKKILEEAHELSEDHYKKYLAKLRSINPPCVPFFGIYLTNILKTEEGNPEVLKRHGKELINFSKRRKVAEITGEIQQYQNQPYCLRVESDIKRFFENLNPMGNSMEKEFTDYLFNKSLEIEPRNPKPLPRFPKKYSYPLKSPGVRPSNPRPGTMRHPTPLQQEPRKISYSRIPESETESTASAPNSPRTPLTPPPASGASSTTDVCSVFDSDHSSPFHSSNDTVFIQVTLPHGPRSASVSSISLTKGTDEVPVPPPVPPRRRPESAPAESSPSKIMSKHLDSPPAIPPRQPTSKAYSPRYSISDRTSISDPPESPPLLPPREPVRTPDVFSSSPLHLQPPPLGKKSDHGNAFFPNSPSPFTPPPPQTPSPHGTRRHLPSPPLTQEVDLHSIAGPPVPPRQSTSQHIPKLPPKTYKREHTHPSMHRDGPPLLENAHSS

In the case of `COc1cc2nc(C)nc(N[C@H](C)c3cc(N)cc(C(F)(F)F)c3)c2cc1OCCCCC(=O)N[C@H](C(=O)N1C[C@H](O)C[C@H]1C(=O)NCc1ccc(-c2scnc2C)cc1)C(C)(C)C`, the result in the assay on MIA PaCa-2 [1] was Active. For the same compound, the IC50 (usually the concentration at which inhibition is half-maximal) in the assay with MIA PaCa-2 [2] stood at 0.098 µM; with K562 [3] it was 0.535 µM; with MIA PaCa-2 [10] it was 3.48 µM. Also, the outcome (in the assay with K562 [4]; in assay [8]; in assay [9]; in assay [12]; in assay [15]) was inactive. The inhibition result in the assay with NCI-H358 [5] and in the assay on MIA PaCa-2 [14] was “Active” throughout. Also, the inhibition in vivo at 30 mg/kg in the assay with NCI-H358 [6] turned out to be 78.8%. In addition, the Emax (in general, the maximal effect, on the per cent scale that the assay sets) in assay [7] was over 90%. Moreover, the figures for the Activity in assay [11] and in assay [13] were 89.8% and 90.9%, respectively.
